Reference: the kinase profiling compilation of Christmann-Franck et al. (2016)

Legend:
Test in all cases: radiometric filter-binding kinase assay, Kinase HotSpot
Conditions in all cases: compound 0.5 µM; ATP 10 µM
[1] = biological target: TBK1 (human) (UniProt Q9UHD2)
[2] = biological target: BTK (human) (UniProt Q06187)
[3] = biological target: CDK9 CCNT1 (human) (UniProt P50750+O60563)
[4] = biological target: BRSK2 (human) (UniProt Q8IWQ3)
[5] = biological target: PRKX (human) (UniProt P51817)
[6] = biological target: PRKCI (human) (UniProt P41743)
Chain of PRKCI (human) (P41743 whole entry, looked up): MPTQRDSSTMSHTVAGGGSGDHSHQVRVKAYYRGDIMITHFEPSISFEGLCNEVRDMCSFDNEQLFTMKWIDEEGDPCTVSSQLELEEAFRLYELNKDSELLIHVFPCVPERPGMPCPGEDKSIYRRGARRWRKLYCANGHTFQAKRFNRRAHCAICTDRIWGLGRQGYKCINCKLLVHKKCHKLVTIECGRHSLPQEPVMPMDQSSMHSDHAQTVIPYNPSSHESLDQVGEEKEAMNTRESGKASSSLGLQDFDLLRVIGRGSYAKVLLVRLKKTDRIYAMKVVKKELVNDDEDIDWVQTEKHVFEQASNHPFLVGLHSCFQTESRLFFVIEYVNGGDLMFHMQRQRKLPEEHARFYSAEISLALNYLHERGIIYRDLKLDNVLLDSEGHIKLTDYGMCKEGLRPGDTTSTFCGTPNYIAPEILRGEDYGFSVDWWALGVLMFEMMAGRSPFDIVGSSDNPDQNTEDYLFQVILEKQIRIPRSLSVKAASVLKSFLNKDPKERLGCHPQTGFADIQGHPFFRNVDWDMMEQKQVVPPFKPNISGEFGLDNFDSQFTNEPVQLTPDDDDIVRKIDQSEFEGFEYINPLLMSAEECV

[7] = biological target: MAP3K14 (human) (UniProt Q99558)
[8] = biological target: STK17A (human) (UniProt Q9UEE5)
Chain of STK17A (human) (Q9UEE5 whole entry, looked up): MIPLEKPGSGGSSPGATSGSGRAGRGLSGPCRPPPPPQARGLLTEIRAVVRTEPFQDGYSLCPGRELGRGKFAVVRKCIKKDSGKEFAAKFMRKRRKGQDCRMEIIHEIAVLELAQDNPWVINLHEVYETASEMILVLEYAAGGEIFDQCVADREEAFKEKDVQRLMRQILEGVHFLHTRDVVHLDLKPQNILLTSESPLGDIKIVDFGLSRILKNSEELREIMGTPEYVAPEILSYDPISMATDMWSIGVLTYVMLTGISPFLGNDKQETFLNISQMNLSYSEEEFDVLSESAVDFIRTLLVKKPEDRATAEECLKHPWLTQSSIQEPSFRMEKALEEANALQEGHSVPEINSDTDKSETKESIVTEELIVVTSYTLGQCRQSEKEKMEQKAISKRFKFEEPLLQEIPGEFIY

[9] = biological target: SRPK3 (human) (UniProt Q9UPE1)
[10] = biological target: CDK4 CCND3 (human) (UniProt P30281+P11802)
[11] = biological target: PAK3 (human) (UniProt O75914)
[12] = biological target: PKN1 (human) (UniProt Q16512)
[13] = biological target: SLK (human) (UniProt Q9H2G2)
[14] = biological target: EPHA5 (human) (UniProt P54756)
[15] = biological target: STK33 (human) (UniProt Q9BYT3)
[16] = biological target: CAMK1 (human) (UniProt Q14012)
Chain of CAMK1 (human) (Q14012 whole entry, looked up): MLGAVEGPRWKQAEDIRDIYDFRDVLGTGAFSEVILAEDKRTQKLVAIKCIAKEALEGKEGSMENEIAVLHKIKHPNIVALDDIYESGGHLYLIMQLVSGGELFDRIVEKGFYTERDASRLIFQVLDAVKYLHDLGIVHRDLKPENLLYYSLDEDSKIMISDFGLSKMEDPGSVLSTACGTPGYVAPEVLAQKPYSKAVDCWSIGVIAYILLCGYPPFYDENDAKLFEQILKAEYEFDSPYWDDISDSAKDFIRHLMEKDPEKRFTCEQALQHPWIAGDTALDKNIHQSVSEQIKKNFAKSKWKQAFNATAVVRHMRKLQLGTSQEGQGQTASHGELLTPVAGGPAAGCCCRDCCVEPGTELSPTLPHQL

[17] = biological target: NTRK2 (human) (UniProt Q16620)
[18] = biological target: INSR (human) (UniProt P06213)
[19] = biological target: CDK1 CCNB1 (human) (UniProt P06493+P14635)
[20] = biological target: HCK (human) (UniProt P08631)
[21] = biological target: CDK1 CCNA2 (human) (UniProt P06493+P20248)
[22] = biological target: ADRBK1 (human) (UniProt P25098)
Chain of ADRBK1 (human) (P25098 whole entry, looked up): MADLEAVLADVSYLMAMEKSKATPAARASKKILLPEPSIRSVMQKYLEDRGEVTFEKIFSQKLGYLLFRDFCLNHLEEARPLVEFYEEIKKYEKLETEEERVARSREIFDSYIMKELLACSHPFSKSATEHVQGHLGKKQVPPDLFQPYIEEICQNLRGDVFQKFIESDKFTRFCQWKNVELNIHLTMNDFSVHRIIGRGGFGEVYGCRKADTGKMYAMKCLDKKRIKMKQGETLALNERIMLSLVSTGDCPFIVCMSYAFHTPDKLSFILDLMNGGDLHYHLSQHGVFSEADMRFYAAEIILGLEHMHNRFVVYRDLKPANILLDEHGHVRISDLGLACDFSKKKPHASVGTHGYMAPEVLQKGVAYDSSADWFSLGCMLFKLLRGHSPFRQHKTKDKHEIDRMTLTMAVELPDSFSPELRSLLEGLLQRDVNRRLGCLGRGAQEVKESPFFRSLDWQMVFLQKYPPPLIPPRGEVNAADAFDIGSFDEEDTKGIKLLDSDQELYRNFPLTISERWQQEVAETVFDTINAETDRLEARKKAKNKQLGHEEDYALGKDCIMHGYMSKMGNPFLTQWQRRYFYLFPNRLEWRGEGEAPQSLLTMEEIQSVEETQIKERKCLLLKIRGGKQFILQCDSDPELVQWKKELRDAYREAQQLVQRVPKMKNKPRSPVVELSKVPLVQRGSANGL

[23] = biological target: PLK3 (human) (UniProt Q9H4B4)
[24] = biological target: SIK2 (human) (UniProt Q9H0K1)
[25] = biological target: CDK6 CCND3 (human) (UniProt P30281+Q00534)
[26] = system: PRKCQ (human), Q04759 [P330L]
[27] = biological target: TAOK1 (human) (UniProt Q7L7X3)
[28] = biological target: CSNK1G3 (human) (UniProt Q9Y6M4)
[29] = biological target: IGF1R (human) (UniProt P08069)
[30] = biological target: RPS6KA5 KD2 (human) (UniProt O75582)
[31] = biological target: SYK (human) (UniProt P43405)
[32] = biological target: GRK5 (human) (UniProt P34947)
[33] = biological target: PLK1 (human) (UniProt P53350)
Chain of PLK1 (human) (P53350 whole entry, looked up): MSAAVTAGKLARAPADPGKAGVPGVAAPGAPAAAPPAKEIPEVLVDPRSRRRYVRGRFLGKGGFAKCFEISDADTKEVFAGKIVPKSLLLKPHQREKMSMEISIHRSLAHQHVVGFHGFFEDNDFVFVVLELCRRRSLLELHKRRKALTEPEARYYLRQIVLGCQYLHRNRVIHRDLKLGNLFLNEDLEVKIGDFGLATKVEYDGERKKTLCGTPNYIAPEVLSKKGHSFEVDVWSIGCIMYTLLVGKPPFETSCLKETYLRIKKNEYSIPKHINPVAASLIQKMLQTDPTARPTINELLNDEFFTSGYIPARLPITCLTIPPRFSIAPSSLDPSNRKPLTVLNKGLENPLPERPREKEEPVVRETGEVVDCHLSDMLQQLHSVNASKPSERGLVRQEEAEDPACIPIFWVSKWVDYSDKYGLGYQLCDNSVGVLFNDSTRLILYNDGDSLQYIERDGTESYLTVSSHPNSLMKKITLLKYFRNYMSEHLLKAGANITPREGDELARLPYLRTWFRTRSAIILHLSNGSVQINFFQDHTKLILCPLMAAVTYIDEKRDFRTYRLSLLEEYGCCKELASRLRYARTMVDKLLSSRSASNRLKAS

[34] = biological target: CAMK1D (human) (UniProt Q8IU85)
[35] = biological target: HIPK3 (human) (UniProt Q9H422)
[36] = biological target: CDC42BPA (human) (UniProt Q5VT25)
[37] = biological target: TGFBR2 (human) (UniProt P37173)
[38] = biological target: CSNK1G2 (human) (UniProt P78368)
[39] = biological target: FGFR2 (human) (UniProt P21802)
Chain of FGFR2 (human) (P21802 whole entry, looked up): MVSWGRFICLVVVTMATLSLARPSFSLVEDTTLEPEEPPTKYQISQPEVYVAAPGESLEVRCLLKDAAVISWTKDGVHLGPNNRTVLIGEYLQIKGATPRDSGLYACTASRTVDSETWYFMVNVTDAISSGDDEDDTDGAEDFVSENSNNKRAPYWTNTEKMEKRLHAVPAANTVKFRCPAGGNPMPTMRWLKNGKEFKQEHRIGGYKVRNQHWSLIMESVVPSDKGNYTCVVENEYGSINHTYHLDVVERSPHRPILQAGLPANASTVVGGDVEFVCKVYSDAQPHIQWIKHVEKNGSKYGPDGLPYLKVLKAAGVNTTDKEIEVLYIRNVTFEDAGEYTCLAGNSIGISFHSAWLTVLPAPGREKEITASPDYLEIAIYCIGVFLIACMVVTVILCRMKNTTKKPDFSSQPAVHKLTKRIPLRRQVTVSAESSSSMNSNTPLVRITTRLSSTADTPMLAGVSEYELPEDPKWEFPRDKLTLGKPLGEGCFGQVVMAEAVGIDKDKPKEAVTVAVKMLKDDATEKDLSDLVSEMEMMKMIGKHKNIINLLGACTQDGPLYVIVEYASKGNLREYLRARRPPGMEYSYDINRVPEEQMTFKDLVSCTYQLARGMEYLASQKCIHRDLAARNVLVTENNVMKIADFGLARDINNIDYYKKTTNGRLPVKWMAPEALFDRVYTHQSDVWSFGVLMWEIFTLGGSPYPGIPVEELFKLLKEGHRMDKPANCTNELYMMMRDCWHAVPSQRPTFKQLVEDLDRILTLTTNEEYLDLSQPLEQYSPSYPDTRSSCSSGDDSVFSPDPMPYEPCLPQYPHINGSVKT

[40] = biological target: TYRO3 (human) (UniProt Q06418)
Chain of TYRO3 (human) (Q06418 whole entry, looked up): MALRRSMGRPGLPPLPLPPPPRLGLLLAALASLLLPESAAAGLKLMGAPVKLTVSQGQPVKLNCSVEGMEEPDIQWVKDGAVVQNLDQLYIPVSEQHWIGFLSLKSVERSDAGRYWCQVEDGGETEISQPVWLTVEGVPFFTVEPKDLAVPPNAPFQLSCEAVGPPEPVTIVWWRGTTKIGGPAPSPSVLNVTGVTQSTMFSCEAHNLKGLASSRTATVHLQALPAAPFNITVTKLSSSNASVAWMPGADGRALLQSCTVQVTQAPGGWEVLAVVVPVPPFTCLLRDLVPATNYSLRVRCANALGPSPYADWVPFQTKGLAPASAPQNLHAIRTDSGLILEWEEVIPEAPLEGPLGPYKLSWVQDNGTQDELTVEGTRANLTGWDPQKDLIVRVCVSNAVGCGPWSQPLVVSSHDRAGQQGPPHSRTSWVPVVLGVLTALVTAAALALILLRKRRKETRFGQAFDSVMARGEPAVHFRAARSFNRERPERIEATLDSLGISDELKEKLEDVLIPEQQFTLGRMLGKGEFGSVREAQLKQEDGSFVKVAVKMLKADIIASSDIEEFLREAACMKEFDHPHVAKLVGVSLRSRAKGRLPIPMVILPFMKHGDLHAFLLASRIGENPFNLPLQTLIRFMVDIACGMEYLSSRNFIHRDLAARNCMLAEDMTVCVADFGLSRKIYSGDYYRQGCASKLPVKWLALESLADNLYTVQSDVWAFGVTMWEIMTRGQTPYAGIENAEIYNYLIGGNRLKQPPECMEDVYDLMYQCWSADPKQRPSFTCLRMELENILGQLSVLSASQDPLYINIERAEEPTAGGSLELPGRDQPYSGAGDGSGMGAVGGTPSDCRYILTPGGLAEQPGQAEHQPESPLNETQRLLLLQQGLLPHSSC

[41] = biological target: MATK (human) (UniProt P42679)

Chain of BTK (human) (Q06187 whole entry, looked up): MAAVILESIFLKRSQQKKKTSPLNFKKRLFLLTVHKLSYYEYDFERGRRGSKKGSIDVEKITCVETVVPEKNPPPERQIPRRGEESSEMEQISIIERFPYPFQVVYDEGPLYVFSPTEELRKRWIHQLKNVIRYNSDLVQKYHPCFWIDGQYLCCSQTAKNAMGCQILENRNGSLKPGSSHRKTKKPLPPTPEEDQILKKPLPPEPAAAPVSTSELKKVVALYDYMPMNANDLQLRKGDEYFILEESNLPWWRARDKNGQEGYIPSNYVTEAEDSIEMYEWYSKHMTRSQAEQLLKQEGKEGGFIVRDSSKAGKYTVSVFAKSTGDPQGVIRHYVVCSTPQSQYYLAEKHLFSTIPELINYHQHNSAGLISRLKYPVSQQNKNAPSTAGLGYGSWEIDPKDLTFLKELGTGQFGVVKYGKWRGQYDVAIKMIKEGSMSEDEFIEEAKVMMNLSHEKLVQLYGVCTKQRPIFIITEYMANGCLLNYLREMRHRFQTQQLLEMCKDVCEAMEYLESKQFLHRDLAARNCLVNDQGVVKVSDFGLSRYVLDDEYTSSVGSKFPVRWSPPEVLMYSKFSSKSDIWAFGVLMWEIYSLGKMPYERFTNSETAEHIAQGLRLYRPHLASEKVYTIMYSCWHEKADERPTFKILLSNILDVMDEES

COc1cc2ncnc(Nc3ccc(OCc4ccccc4)cc3)c2cc1OC
residual activity [1]: 101%
residual activity [2]: 90.6%
residual activity [3]: 94.5%
residual activity [4]: 98.7%
residual activity [5]: 105%
residual activity [6]: 101%
residual activity [7]: 84.4%
residual activity [8]: 99.6%
residual activity [9]: 92.8%
residual activity [10]: 102%
residual activity [11]: 97.7%
residual activity [12]: 101%
residual activity [13]: 76.4%
residual activity [14]: 105%
residual activity [15]: 109%
residual activity [16]: 98.4%
residual activity [17]: 92.5%
residual activity [18]: 100%
residual activity [19]: 89.9%
residual activity [20]: 74.5%
residual activity [21]: 97.2%
residual activity [22]: 101%
residual activity [23]: 98%
residual activity [24]: 73.7%
residual activity [25]: 97.8%
residual activity [26]: 102%
residual activity [27]: 94.4%
residual activity [28]: 92.9%
residual activity [29]: 102%
residual activity [30]: 103%
residual activity [31]: 93.1%
residual activity [32]: 105%
residual activity [33]: 101%
residual activity [34]: 104%
residual activity [35]: 85.3%
residual activity [36]: 101%
residual activity [37]: 121%
residual activity [38]: 98.4%
residual activity [39]: 103%
residual activity [40]: 86.9%
residual activity [41]: 97.5%

COc1ccc(C(=O)Nc2sc3c(c2C(N)=O)CCCC3)cc1OC
residual activity [1]: 102%
residual activity [2]: 104%
residual activity [3]: 102%
residual activity [4]: 97.9%
residual activity [5]: 101%
residual activity [6]: 91.8%
residual activity [7]: 88%
residual activity [8]: 98.5%
residual activity [9]: 92%
residual activity [10]: 98.8%
residual activity [11]: 96.2%
residual activity [12]: 96.3%
residual activity [13]: 92.5%
residual activity [14]: 104%
residual activity [15]: 99.5%
residual activity [16]: 90.9%
residual activity [17]: 67.4%
residual activity [18]: 93.2%
residual activity [19]: 94.3%
residual activity [20]: 109%
residual activity [21]: 105%
residual activity [22]: 96.8%
residual activity [23]: 95%
residual activity [24]: 102%
residual activity [25]: 94.9%
residual activity [26]: 97.5%
residual activity [27]: 95.5%
residual activity [28]: 91.7%
residual activity [29]: 97.7%
residual activity [30]: 105%
residual activity [31]: 91.2%
residual activity [32]: 104%
residual activity [33]: 99%
residual activity [34]: 93.8%
residual activity [35]: 105%
residual activity [36]: 81.8%
residual activity [37]: 134%
residual activity [38]: 98.7%
residual activity [39]: 100%
residual activity [40]: 98.1%
residual activity [41]: 92.7%

O=C(c1cc2cc(O)ccc2[nH]1)c1cc2cc(O)ccc2[nH]1
residual activity [1]: 35%
residual activity [2]: 86.8%
residual activity [3]: 76.6%
residual activity [4]: 44.3%
residual activity [5]: 94.5%
residual activity [6]: 98.4%
residual activity [7]: 77.1%
residual activity [8]: 51.7%
residual activity [9]: 99.4%
residual activity [10]: 105%
residual activity [11]: 99.2%
residual activity [12]: 76.3%
residual activity [13]: 78.6%
residual activity [14]: 100%
residual activity [15]: 77.5%
residual activity [16]: 97.4%
residual activity [17]: 37%
residual activity [18]: 93.8%
residual activity [19]: 60.5%
residual activity [20]: 51.2%
residual activity [21]: 88.2%
residual activity [22]: 98.2%
residual activity [23]: 101%
residual activity [24]: 78.3%
residual activity [25]: 50.3%
residual activity [26]: 92.1%
residual activity [27]: 85.6%
residual activity [28]: 77.2%
residual activity [29]: 103%
residual activity [30]: 96.1%
residual activity [31]: 72%
residual activity [32]: 104%
residual activity [33]: 101%
residual activity [34]: 91.5%
residual activity [35]: 97.3%
residual activity [36]: 90.2%
residual activity [37]: 123%
residual activity [38]: 93.8%
residual activity [39]: 98.5%
residual activity [40]: 76.4%
residual activity [41]: 93.3%
